Common to all, as to assay: MIC in agar
Holding throughout (type): cell-based

One assay has as its system E. coli ESS. Conditions: Escherichia coli. An excerpt:
| (μg/ml) in agar of compound

For the next assay, the system named is Proteus rettgeri WM16. Particulars: Providencia rettgeri; in agar; Proteus rettgeri WM16; read-out: M.I.C. The source says:
(§1) a. Antibacterial effectiveness of compounds of
(§2) Examples 6 and 7 in agar.
(§3) (μg/ml) in agar of compound

For another assay, the system named is Streptococcus faecalis I. Particulars: Enterococcus faecalis; in agar; Streptococcus faecalis I; read-out: M.I.C.
Excerpt: as §1, §2, §3

For a further assay, the system named is Klebsiella aerogenes A. Conditions: in agar; Klebsiella aerogenes A; read-out: M.I.C.
Excerpt: as §1, §2, §3

Another assay relates to Proteus mirabilis C977. Particulars: in agar; Proteus mirabilis C977; read-out: M.I.C.
Excerpt: as §1, §2, §3

The subject of another assay is Enterobacter cloacae N1. Particulars: in agar; Enterobacter cloacae N1; read-out: M.I.C.
Excerpt: as §1, §2, §3

Assay [1] has as its system Streptococcus pneumoniae CN33.
Excerpt: as §1, §2, §3

In assay [2] the test system is Streptococcus pyogenes CN10. Conditions: in agar; Streptococcus pyogenes CN10; read-out: M.I.C.
Excerpt: as §1, §2, §3

Assay [3] concerns Salmonella typhimurium CT10. Conditions: Salmonella enterica; in agar; Salmonella typhimurium CT10; read-out: M.I.C.
Excerpt: as §1, §2, §3

In another assay the test system is Citrobacter freundii E8. Conditions: in agar; Citrobacter freundii E8; read-out: M.I.C.
Excerpt: as §1, §2, §3

A further assay has as its system Pseudomonas aeruginosa A. Conditions: in agar; Pseudomonas aeruginosa A; read-out: M.I.C.
Excerpt: as §1, §2, §3

In assay [4] the test system is Staphylococcus aureus 1517. Conditions: in agar; Staphylococcus aureus 1517; read-out: M.I.C.
Excerpt: as §1, §2, §3

A further assay has as its system Escherichia coli 0111.
Excerpt: as §1, §2, §3

The subject of the next assay is Bacillus subtilis A. Conditions: in agar; Bacillus subtilis A; read-out: M.I.C.
Excerpt: as §1, §2, §3

For the next assay, the system named is Shigella sonnei MB 11967. Conditions: MB11967.
Excerpt: as §1, §2, §3

A further assay relates to Serratia marcescens US20. Particulars: in agar; Serratia marcescens US20; read-out: M.I.C.
Excerpt: as §1, §2, §3

The next assay relates to Proteus vulgaris W091. Conditions: in agar; Proteus vulgaris W091; read-out: M.I.C.
Excerpt: as §1, §2, §3

A further assay concerns Escherichia coli JT39.
Excerpt: as §1, §2, §3

Assay [5] concerns Staphylococcus aureus Oxford. Conditions: in agar; Staphylococcus aureus Oxford; read-out: M.I.C.
Excerpt: as §1, §2, §3

Another assay has as its system Proteus morganii 1580. Particulars: Morganella morganii; in agar; Proteus morganii 1580; read-out: M.I.C.
Excerpt: as §1, §2, §3

Assay [6] concerns Staphylococcus aureus Russell. Conditions: in agar; Staphylococcus aureus Russell; read-out: M.I.C.
Excerpt: as §1, §2, §3

Structures are written as SMILES. ≈ marks a conversion by molar mass, not a printed value. Structures can show the parent of a compound that is named as a salt. Where two headings read alike, the source gives them in different places. Some results are limits rather than exact numbers.

Regarding `C[C@H](O)[C@@H]1C(=O)N2C(C(=O)O)=C(S/C=C\C(=O)OCCN)C[C@H]12` [Example 20, (5R,6R)-3-[2-(Z)-(2-Aminoethoxycarbonyl)ethenylthio]-6-[(S)-1-hydroxyethyl]-7-oxo-1-azabicyclo[3.2.0]hept-2-ene-2-carboxylic acid], the MIC with E. coli ESS is not above 0.1 µg/mL; in the assay on Proteus rettgeri WM16, 0.2 µg/mL (≈ 0.584 µM); in the assay on Streptococcus faecalis I, not above 0.1 µg/mL; with Klebsiella aerogenes A, not above 0.1 µg/mL; with Proteus mirabilis C977, 0.4 µg/mL (≈ 1.17 µM); with Enterobacter cloacae N1, 0.2 µg/mL (≈ 0.584 µM). Moreover, the MIC is not above 0.1 µg/mL in [1]; not above 0.1 µg/mL in assay [2]; not above 0.1 µg/mL in [3]; 0.2 µg/mL (≈ 0.584 µM) with Citrobacter freundii E8; 25 µg/mL (≈ 73 µM) in the assay on Pseudomonas aeruginosa A; 0.2 µg/mL (≈ 0.584 µM) in assay [4]. Further, the MIC is not above 0.1 µg/mL against Escherichia coli 0111; not above 0.1 µg/mL in the assay with Bacillus subtilis A; 0.2 µg/mL (≈ 0.584 µM) against Shigella sonnei MB 11967; not above 0.1 µg/mL with Serratia marcescens US20; 0.4 µg/mL (≈ 1.17 µM) in the assay with Proteus vulgaris W091; 0.2 µg/mL (≈ 0.584 µM) in the assay on Escherichia coli JT39 (Escherichia coli, JT39). Besides, the MIC in [5] was not above 0.1 µg/mL.
In the case of `C[C@H](O)[C@@H]1C(=O)N2C(C(=O)O)=C(S/C=C\C(=O)O)C[C@H]12` [Example 24, The Disodium salt of (5R,6R)-3-[(Z)-2-carboxyethenylthio]-6-[(S)-1-hydroxyethyl]-7-oxo-1-azabicyclo[3.2.0]hept-2-ene-2-carboxylic acid], the MIC is not above 0.1 µg/mL with E. coli ESS; 0.5 µg/mL with Proteus rettgeri WM16; 0.5 µg/mL with Proteus morganii 1580; 2.5 µg/mL in the assay with Streptococcus faecalis I; 0.2 µg/mL in the assay on Klebsiella aerogenes A; 0.5 µg/mL in the assay on Proteus mirabilis C977. The MIC was 0.5 µg/mL in the assay with Enterobacter cloacae N1; not above 0.1 µg/mL in [1]; not above 0.1 µg/mL in assay [2]; 0.5 µg/mL in [3]; 1.2 µg/mL with Citrobacter freundii E8; more than 50 µg/mL with Pseudomonas aeruginosa A. Further, the MIC in [4] is 5 µg/mL; in assay [6], 0.5 µg/mL; in the assay with Escherichia coli 0111 it was 0.2 µg/mL; in the assay on Bacillus subtilis A, not above 0.1 µg/mL; in the assay on Shigella sonnei MB 11967, 0.5 µg/mL; with Serratia marcescens US20 it was 2.5 µg/mL. Besides, the MIC came out at 0.5 µg/mL with Proteus vulgaris W091; 5 µg/mL in the assay with Escherichia coli JT39 (in agar, Escherichia coli JT39, read-out: M.I.C.); 0.5 µg/mL in assay [5].

These data come from patent US4473578A, “β-Lactam antibiotics and their use” (Beecham Group Limited, priority 1979, dated 1984).
